The target of experiment [1] is human RORγt ligand binding domain (RORγt LBD) (Homo sapiens (Human), UniProt P51449). The experiment in a line: RORγt ThermoFluor® assay (thermal shift binding). As to conditions: read-out: ThermoFluor® Assay, Kd. The procedure, abridged:
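His-tagged human RORγt LBD (0.065 mg/mL) with 60 μM 1,8-ANS in 100 mM Hepes pH 7.0, 10 mM NaCl, 2.5 mM GSH, 0.002% Tween-20 was heated at 1 °C/min.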

Another experiment addresses full-length human RORγt (Homo sapiens (Human), UniProt P51449). The experiment in a line: RORγt (full-length human) reporter assay, Conditions B or C. The class given is cell-based. The note with it: for inhibition at 3 µM: at 3 μM compound concentration, read-out: RORγt (FL) Reporter Assay B or C, % inhibition; for IC50: read-out: RORγt (FL) Reporter Assay B or C, IC50; for RORγt (FL) Reporter Assay B or C, % inhibition (value marked *): marked *: footnote not given. The gist of the method: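 HEK293T cells transiently co-transfected with GAL4-DBD–full-length human RORγt (nt 142-1635, NM_001001523.1) plus GAL4-firefly and CMV-Renilla luciferase reporters; compounds added 4-6 h post-transfection for 16-20 h in 1.3% FBS, 0.1% DMSO. Firefly signal normalized to DMSO and saturating reference compound, then to Renilla; IC50 from concentration plots.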
(In general: A reporter such as luciferase makes a cellular process visible.)

What is called Kd is the concentration at which binding is half-saturated. For orientation: inhibition means the drop in the measured response relative to a control, in per cent. A word on the IC50: it is the concentration that gives 50% inhibition.

Where two headings read alike, the source gives them in different places.

full-length human RORγt, sequence (P51449 other isoform, or with tags, fused parts or gaps): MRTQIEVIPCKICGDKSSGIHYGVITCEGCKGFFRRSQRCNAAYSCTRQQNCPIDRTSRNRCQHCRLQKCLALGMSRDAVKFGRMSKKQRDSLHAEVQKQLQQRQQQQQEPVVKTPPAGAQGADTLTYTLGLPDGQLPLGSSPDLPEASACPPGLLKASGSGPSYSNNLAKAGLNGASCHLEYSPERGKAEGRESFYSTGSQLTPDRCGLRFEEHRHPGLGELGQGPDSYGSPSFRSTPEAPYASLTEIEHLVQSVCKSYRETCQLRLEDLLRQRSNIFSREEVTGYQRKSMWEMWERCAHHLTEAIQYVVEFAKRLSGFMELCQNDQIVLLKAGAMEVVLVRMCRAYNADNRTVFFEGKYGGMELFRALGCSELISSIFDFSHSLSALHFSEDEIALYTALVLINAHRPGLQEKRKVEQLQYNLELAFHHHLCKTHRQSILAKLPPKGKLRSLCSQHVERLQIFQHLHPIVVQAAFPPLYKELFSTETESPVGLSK
human RORγt ligand binding domain (RORγt LBD), sequence (P51449 other isoform, or with tags, fused parts or gaps): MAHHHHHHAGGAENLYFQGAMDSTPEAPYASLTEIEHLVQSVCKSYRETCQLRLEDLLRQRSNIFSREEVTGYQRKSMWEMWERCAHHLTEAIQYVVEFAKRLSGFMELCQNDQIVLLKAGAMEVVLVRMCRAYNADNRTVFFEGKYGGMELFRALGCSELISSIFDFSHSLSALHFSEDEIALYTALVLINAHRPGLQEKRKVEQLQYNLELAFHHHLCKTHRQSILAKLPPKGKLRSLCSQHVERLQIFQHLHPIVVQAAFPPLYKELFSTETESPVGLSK

Consider `CC[C@H](Nc1cc(C(F)F)c(-c2sc(C(=O)NC3CCCC3O)nc2C(=O)N2CCC[C@@H]2C)cn1)C(F)(F)F` (stereo partly drawn) [Example 252, 5-(4-(Difluoromethyl)-6-(((S)-1,1,1-trifluorobutan-2-yl)amino)pyridin-3-yl)-N-(cis-2-hydroxycyclopentyl)-4-((S)-2-methylpyrrolidine-1-carbonyl)thiazole-2-carboxamide], for which the Kd in experiment [1] was determined as 1.2 nM. For the same compound, on full-length human RORγt, the inhibition at 3 µM came to 106% and the IC50 stood at 35 nM.

In the case of `CC(C)(C)Nc1cc(C(F)F)c(-c2sc(C(=O)NC3CCS(=O)(=O)CC3)nc2C(=O)N2C3CCC2CC3)cn1` [Example 433, 4-((1s,4s)-7-Azabicyclo[2.2.1]heptane-7-carbonyl)-5-[6-(tert-butylamino)-4-(difluoromethyl)-3-pyridyl]-N-(1,1-dioxothian-4-yl)thiazole-2-carboxamide], the Kd in experiment [1] stood at 1.2 nM. Also, at full-length human RORγt, the inhibition at 3 µM turned out to be 128% and the IC50 turned out to be 25 nM.

`C[C@H]1CCCN1C(=O)c1nc(C(=O)NC2CS(=O)(=O)C2)sc1-c1cnc(NC2CCCC2)cc1C(F)F` [Example 61, (S)-5-(6-(Cyclopentylamino)-4-(difluoromethyl)pyridin-3-yl)-N-(1,1-dioxidothietan-3-yl)-4-(2-methylpyrrolidine-1-carbonyl)thiazole-2-carboxamide]: the Kd in experiment [1] came to 7 nM. For the same compound, on full-length human RORγt (Conditions B or C), the “RORγt (FL) Reporter Assay B or C, % inhibition (value marked *)” value is given as 103* % and the IC50 came to 13 nM.

Consider `C[C@H]1CCCN1C(=O)c1nc(C(=O)N[C@H](C)C(C)(C)O)sc1-c1cnc(N[C@@H](C2CC2)C(F)(F)F)cc1C(F)F` [Example 311, 5-(6-(((S)-1-Cyclopropyl-2,2,2-trifluoroethyl)amino)-4-(difluoromethyl)pyridin-3-yl)-N—((R)-3-hydroxy-3-methylbutan-2-yl)-4-((S)-2-methylpyrrolidine-1-carbonyl)thiazole-2-carboxamide], for which, in experiment [1], the Kd was 3.7 nM. At full-length human RORγt, the inhibition at 3 µM amounted to 107% and the IC50 was determined as 40 nM.

Consider `C[C@H](CO)NC(=O)c1nc(C(=O)N2CC(F)(F)C[C@@H]2C)c(-c2cnc(N[C@@H](C)C(F)(F)F)cc2C(F)F)s1` [Example 447, 4-[(2S)-4,4-Difluoro-2-methyl-pyrrolidine-1-carbonyl]-5-[4-(difluoromethyl)-6-[[(1S)-2,2,2-trifluoro-1-methyl-ethyl]amino]-3-pyridyl]-N-[(1R)-2-hydroxy-1-methyl-ethyl]thiazole-2-carboxamide], for which, in experiment [1], the Kd came to 2.1 nM. On full-length human RORγt, the inhibition at 3 µM amounted to 89% and the IC50 was determined as 75 nM.

With `C[C@H]1CCCN1C(=O)c1nc(C(=O)NCCC(C)(C)O)sc1-c1cnc(NC(C)(C)C)cc1C(F)(F)F` [Example 338, 5-[6-(tert-Butylamino)-4-(trifluoromethyl)-3-pyridyl]-N-(3-hydroxy-3-methyl-butyl)-4-[(2S)-2-methylpyrrolidine-1-carbonyl]thiazole-2-carboxamide], in experiment [1], the dissociation constant (Kd) came out at 3.9 nM. Also, at full-length human RORγt, the inhibition at 3 µM was 107% and the IC50 is 7.7 nM.

Turning to `C[C@H](Nc1cc(C(F)F)c(-c2sc(C(=O)N[C@@H]3CC[C@@H]3O)nc2C(=O)N2CCC[C@@H]2C)cn1)C(F)(F)F` (relative stereo) [Example 391, 5-(4-(Difluoromethyl)-6-(((S)-1,1,1-trifluoropropan-2-yl)amino)pyridin-3-yl)-N-((1R*,2S*)-2-hydroxycyclobutyl)-4-((S)-2-methylpyrrolidine-1-carbonyl)thiazole-2-carboxamide], the Kd in experiment [1] came to 4.2 nM. Also, at full-length human RORγt, the inhibition at 3 µM was 106% and the IC50 is 35 nM.

Turning to `C[C@H]1CC(F)(F)CN1C(=O)c1nc(C(=O)NCC(C)(C)O)sc1-c1cnc(NCC2(C)CC2)cc1C(F)(F)F` [Example 277, 4-[(2S)-4,4-Difluoro-2-methyl-pyrrolidine-1-carbonyl]-N-(2-hydroxy-2-methyl-propyl)-5-[6-[(1-methylcyclopropyl)methylamino]-4-(trifluoromethyl)-3-pyridyl]thiazole-2-carboxamide], the Kd in experiment [1] worked out at 2.4 nM. Also, on full-length human RORγt, the inhibition at 3 µM turned out to be 113% and the IC50 stood at 11 nM.

Take `C[C@H](NC(=O)c1nc(C(=O)N2CCC[C@@H]2C)c(-c2cnc(N[C@@H](C3CC3)C(F)(F)F)cc2C(F)F)s1)C(C)(C)O` [Example 312, 5-(6-(((S)-1-Cyclopropyl-2,2,2-trifluoroethyl)amino)-4-(difluoromethyl)pyridin-3-yl)-N—((S)-3-hydroxy-3-methylbutan-2-yl)-4-((S)-2-methylpyrrolidine-1-carbonyl)thiazole-2-carboxamide]: the Kd in experiment [1] came out at 2.2 nM. For the same compound, at full-length human RORγt, the inhibition at 3 µM was 106% and the IC50 turned out to be 27 nM.

Take `C[C@H]1CCCN1C(=O)c1nc(C(=O)NC2CCCC2O)sc1-c1cnc(NC(C)(C)C)cc1C(F)(F)F` (stereo partly drawn) [Example 347, 5-[6-(tert-Butylamino)-4-(trifluoromethyl)-3-pyridyl]-N-[cis-2-hydroxycyclopentyl]-4-[(2S)-2-methylpyrrolidine-1-carbonyl]thiazole-2-carboxamide]: the Kd in experiment [1] amounted to 0.38 nM. Moreover, at full-length human RORγt, the inhibition at 3 µM worked out at 124% and the 50% inhibitory concentration (IC50) was found to be 3.8 nM.

Regarding `CC[C@H](Nc1cc(C(F)F)c(-c2sc(C(=O)NC3CN(C(C)=O)C3)nc2C(=O)N2CCC[C@@H]2C)cn1)C(F)(F)F` [Example 382, N-(1-Acetylazetidin-3-yl)-5-[4-(difluoromethyl)-6-[[(1S)-1-(trifluoromethyl)propyl]amino]-3-pyridyl]-4-[(2S)-2-methylpyrrolidine-1-carbonyl]thiazole-2-carboxamide], the Kd in experiment [1] stood at 47 nM. Moreover, on full-length human RORγt, the inhibition at 3 µM came to 107% and the IC50 was 300 nM.

Consider `CC[C@H](Nc1cc(C(F)F)c(-c2sc(C(=O)N3CC4(COC4)C3)nc2C(=O)N2CCC[C@@H]2C)cn1)C(F)(F)F` [Example 384, [5-[4-(Difluoromethyl)-6-[[(1S)-1-(trifluoromethyl)propyl]amino]-3-pyridyl]-2-(6-oxa-2-azaspiro[3.3]heptane-2-carbonyl)thiazol-4-yl]-[(2S)-2-methylpyrrolidin-1-yl]methanone], for which, in experiment [1], the Kd was 5 nM. Also, at full-length human RORγt, the inhibition at 3 µM was 98% and the half-maximal inhibitory concentration (IC50) is 70 nM.

Turning to `C[C@H]1CCCN1C(=O)c1nc(C(=O)N[C@H](C)C(C)(C)O)sc1-c1cnc(NC(C)(C)C)cc1C(F)(F)F` [Example 335, 5-[6-(tert-Butylamino)-4-(trifluoromethyl)-3-pyridyl]-N-[(1R)-2-hydroxy-1,2-dimethyl-propyl]-4-[(2S)-2-methylpyrrolidine-1-carbonyl]thiazole-2-carboxamide], the Kd in experiment [1] stood at 1.3 nM. For the same compound, at full-length human RORγt, the inhibition at 3 µM was found to be 102% and the IC50 turned out to be 40 nM.

Take `C[C@H]1CCCN1C(=O)c1nc(C(=O)NCC(C)(C)O)sc1-c1cnc(NC2(C)CCC2)cc1C(F)(F)F` [Example 77, (S)—N-(2-Hydroxy-2-methylpropyl)-5-(6-((1-methylcyclobutyl)amino)-4-(trifluoromethyl)pyridin-3-yl)-4-(2-methylpyrrolidine-1-carbonyl)thiazole-2-carboxamide]: in experiment [1], the Kd is 1.3 nM. Further, at full-length human RORγt (Conditions B or C), the “RORγt (FL) Reporter Assay B or C, % inhibition (value marked *)” value was 108* % and the IC50 was found to be 17 nM.

The record behind these values is patent US10975068B2, “6-aminopyridin-3-yl thiazoles as modulators of RORγT” (Janssen Pharmaceutica NV, priority 2016, dated 2021).
